Earlier results as cited in patent publication US20100221361A1, “STABLE OXIDIZING BROMINE COMPOSITION, METHOD OF MANUFACTURE AND USE THEREOF FOR BIOFOULING CONTROL” (priority 2009, published 2010).

Conditions: in water

BrBr [elemental liquid bromine, bromine]
solubility: < 4 g/ 100 g water
